Measurements from PubChem BioAssay (NCI).
Where “and” joins values, the source holds several entries; their conditions need not be identical. Identical values can stand only once.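 Each compound was tested at five concentrations against cells in 96-well plates for 48 hours. The concentration for 50% growth inhibition is given as GI50. TGI: total growth inhibition.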

Legend:
Assay in all cases: inhibition of tumour cell growth, NCI panel, 48 h
A549 NSCLC = tested on: A549 NSCLC
DU-145 prostate = tested on: DU-145 prostate
HCT-116 colon = tested on: HCT-116 colon
HOP-62 NSCLC = tested on: HOP-62 NSCLC
IGROV1 ovarian = tested on: IGROV1 ovarian
NCI-H226 lung = tested on: NCI-H226 lung
NCI-H23 lung = tested on: NCI-H23 lung
SF-539 CNS = tested on: SF-539 CNS
SW-620 colon = tested on: SW-620 colon
U251 CNS = tested on: U251 CNS

Compound	GI50 (A549 NSCLC)	TGI (A549 NSCLC)	GI50 (DU-145 prostate)	TGI (DU-145 prostate)	GI50 (HCT-116 colon)	TGI (HCT-116 colon)	GI50 (HOP-62 NSCLC)	TGI (HOP-62 NSCLC)	GI50 (IGROV1 ovarian)	TGI (IGROV1 ovarian)	GI50 (NCI-H226 lung)	TGI (NCI-H226 lung)	GI50 (NCI-H23 lung)	TGI (NCI-H23 lung)	GI50 (SF-539 CNS)	TGI (SF-539 CNS)	GI50 (SW-620 colon)	TGI (SW-620 colon)	GI50 (U251 CNS)	TGI (U251 CNS)
COc1ccc(CNC(=O)c2c(C)n([O-])c3cc(F)c(F)cc3[n+]2=O)cc1	17.6 µM	36.8 µM	13.7 µM	26.5 µM	14.1 µM	27.1 µM	18.2 µM	32.7 µM	1.9 µM	3.84 µM	16.5 µM	41 µM	2.38 µM	10.6 µM	16.5 µM	30.6 µM	3.83 µM	13.1 µM	12.8 µM	25.5 µM
CCN1C(=O)N(CC)C2C1NN=c1s/c(=C\c3cnc(C)n3C)c(=O)n12 (configuration not stated)	3.99 µM	> 100 µM	2.51 µM	> 100 µM	2.43 µM	> 100 µM	2.59 µM	> 100 µM	4.37 µM	> 100 µM	> 100 µM	> 100 µM	3.17 µM	> 100 µM	1.78 µM	5.19 µM	2.01 µM	> 100 µM	2.83 µM	> 100 µM
Nc1nc(N)c(-c2ccc(Cl)cc2)c(/C=C/c2ccc([N+](=O)[O-])cc2)n1	3.1 µM	47.8 µM	6.66 µM	> 100 µM	3.97 µM	> 100 µM	11.9 µM	31.1 µM	5.35 µM	52.9 µM	20.3 µM	> 100 µM	13.3 µM	> 100 µM	7.15 µM	30 µM	4.08 µM	> 100 µM	3.99 µM	23.8 µM
CC(C)CC1NC(=O)C(C(C)C)NC(=O)CC(C)COC(=O)C(CC(C)C)N(C)C(=O)C(C(C)C)NC(=O)C(C(C)C)OC1=O (configuration not stated)		> 50 µM		> 50 µM		> 50 µM		> 50 µM		> 50 µM		> 50 µM		> 50 µM		27.5 µM		> 50 µM		> 50 µM
CC1(C)N=C(N)N=C(N)N1c1ccc(CCC(=O)Nc2cccc(S(=O)(=O)F)c2)cc1	3.32 µM	> 100 µM	5.81 µM	> 100 µM	3.96 µM	> 100 µM	6.56 µM	> 100 µM	1.09 µM	5 µM	> 100 µM	> 100 µM	7.78 µM	> 100 µM	5.65 µM	> 100 µM	5.87 µM	> 100 µM	4.98 µM	> 100 µM
NS(=O)(=O)c1ccc(N=Nc2c(=O)[nH]c3ccc4[nH]cccc4c23)cc1	1.89 µM	> 25 µM	0.611 µM	> 7.96 µM	0.151 µM	> 25 µM	0.653 µM	> 25 µM	0.789 µM	> 25 µM	0.317 µM	3.06 µM	0.671 µM	3.77 µM	0.295 µM	1.46 µM	0.356 µM	> 7.23 µM	0.313 µM	> 25 µM
CC1SC(c2cccc(Cl)c2)N(NC(=O)C(O)c2ccccc2)C1=O (configuration not stated)	86.7 µM	> 100 µM	> 100 µM	> 100 µM	> 100 µM	> 100 µM	> 100 µM	> 100 µM	68.7 µM	> 100 µM	> 100 µM	> 100 µM	> 100 µM	> 100 µM	> 100 µM	> 100 µM	> 100 µM	> 100 µM	> 100 µM	> 100 µM
CCCC(CCC)C(=O)O	> 100 µM	> 20000 µM	> 100 µM	> 20000 µM	> 100 µM	> 20000 µM	> 20000 µM	> 20000 µM	> 100 µM	> 20000 µM	> 20000 µM	> 20000 µM	> 20000 µM	> 20000 µM	> 100 µM	> 20000 µM	> 100 µM	> 20000 µM	> 100 µM	> 20000 µM
CN1C(=O)C(C)(C)Oc2c(-c3cn(C)c(=O)c4[nH]ccc34)cc(S(C)(=O)=O)cc21	0.989 µM	> 100 µM	3.85 µM	> 100 µM	1.13 µM	12.2 µM	0.732 µM	> 100 µM	0.89 µM	> 100 µM	2.26 µM	> 100 µM	1.71 µM	18.7 µM	0.58 µM	40.3 µM	2.15 µM	19.2 µM	1.52 µM	> 100 µM
NC(N)=NC(N)=NCc1ccco1	340 µM and 325 µM	> 1250 µM	> 1250 µM	> 1250 µM	508 µM and 492 µM	> 1250 µM	780 µM	> 1250 µM	854 µM	> 1250 µM	> 1250 µM	> 1250 µM	869 µM and 661 µM	> 1250 µM	> 1250 µM	> 1250 µM	> 1250 µM	> 1250 µM	516 µM	> 1250 µM
CC(=O)Nc1cc(CN2CCCCC2)c(O)c2ncccc12		> 100 µM		75.7 µM		75.9 µM		> 100 µM		> 100 µM		86.1 µM		> 100 µM		> 100 µM		> 100 µM		42 µM
COc1ccc(-c2cc(=O)c3cccnc3[nH]2)cc1		> 100 µM		> 100 µM	17.6 µM	80.3 µM		> 100 µM		> 100 µM		> 100 µM		> 100 µM		> 100 µM		> 100 µM	54.1 µM	> 100 µM
C=CC(=O)Nc1cccc(Nc2nc(Nc3ccc(N4CCN(C(C)=O)CC4)cc3OC)ncc2C(F)(F)F)c1	2.52 µM and 1.81 µM	> 10 µM and 12.1 µM	4.23 µM and 2.39 µM	> 10 µM and 17.3 µM	3.96 µM and 2.54 µM	> 54.4 µM	6.52 µM and 6.2 µM	> 10 µM and 25.9 µM	1.94 µM and 2.71 µM	9.84 µM and 13.6 µM	3.29 µM and 2.38 µM	> 10 µM and 12.7 µM	5.27 µM and 5.47 µM	> 10 µM and 30 µM	4.47 µM and 3.17 µM	> 10 µM and 14.2 µM	3.07 µM and 2.29 µM	> 10 µM and 12.7 µM	4.75 µM and 4.08 µM	> 100 µM
